Reference: ChEMBL document CHEMBL3217600, “The discovery and profile of PF-0868087, a CNS-sparing histamine H3 receptor antagonist for the treatment of allergic rhinitis” (Medchemcomm, 2012)

Tests used:
Histamine H3 receptor [1] = target: T1, Histamine H3 receptor (Homo sapiens, UniProt Q9Y5N1); assay: Displacement of [3H]-N-alpha-methylhistamine from human recombinant histamine H3 receptor expressed in HEK293 cell membrane; format: cell membranes
Nucleic Acid = assay: Ratio of drug level in CSF to free drug level in plasma in iv dosed rat administered at high multiple of H3R Ki measured after 4 hrs infusion; format: ADME, organism-based; details: in vivo
MDR1 (P-gp) = assay: Efflux ratio of permeability from basolateral to apical side over apical to basolateral side of MDR1 transfected dog MDCK cells; format: ADME, cell-based, Canis lupus familiaris
[2] = Toxicity in non-regulatory rat assessed as tolerability administered for 7 days; format: organism-based; details: in vivo
Histamine H3 receptor [3] = target: T2, Histamine H3 receptor (Rattus norvegicus, UniProt Q9QYN8); assay: Displacement of [3H]-N-alpha-methylhistamine from histamine H3 receptor in rat brain; format: tissue-based
BCRP = assay: Efflux ratio of permeability from basolateral to apical side over apical to basolateral side of BCRP transfected dog RRCK cells; format: ADME, cell-based, Canis lupus familiaris, MDCKII-LE
[4] = Therapeutic index in EEG PKPD rat relative to CNS penetrant compound Z; format: organism-based; details: in vivo, read-out: TI
[5] = AUC in dog at 0.2 mg/kg, iv infusion; format: ADME, organism-based, Canis lupus familiaris; set-up: dose 0.2 mg/kg, route intravenous; details: plasma
[6] = Volume of distribution at steady state in rat at 1 mg/kg, iv administered as bolus dose; format: ADME, organism-based; set-up: dose 1 mg/kg, route intravenous; details: in vivo, read-out: Vdss
[7] = Effective half life in dog at 0.2 mg/kg, iv infusion; format: ADME, organism-based, Canis lupus familiaris; set-up: dose 0.2 mg/kg, route intravenous; details: in vivo, read-out: t1/2eff (converted)
[8] = Total Cmax in rat at 2 mg/kg, po; format: ADME, organism-based; set-up: dose 2 mg/kg, route oral; details: in vivo
[9] = AUC in dog at 0.2 mg/kg, po; format: ADME, organism-based, Canis lupus familiaris; set-up: dose 0.2 mg/kg, route oral; details: plasma
CHO [10] = assay: Genotoxicity in CHO cells by micronucleus test in absence of metabolic activation; format: toxicity, cell-based, Cricetulus griseus; details: chinese hamster
Histamine H3 receptor [11] = target: T1, Histamine H3 receptor; assay: Inhibition of human recombinant histamine H3 receptor expressed in HEK293 cells by Glosensor functional assay; format: cell-based
[12] = Tmax in dog at 0.2 mg/kg, po; format: ADME, organism-based, Canis lupus familiaris; set-up: dose 0.2 mg/kg, route oral; details: in vivo
Histamine H4 receptor = Histamine H4 receptor (Homo sapiens, UniProt Q9H3N8); assay: Binding affinity to human histamine H4 receptor
HEK293 = assay: Selectivity ratio of Ki for sigma receptor (unknown origin) to Ki for human recombinant histamine H3 receptor expressed in HEK-293 cells; format: cell-based
[13] = Total Cmax in rat at 1 mg/kg, iv administered as bolus dose; format: ADME, organism-based; set-up: dose 1 mg/kg, route intravenous; details: in vivo
[14] = Induction of phospholipidosis in transformed human liver epithelial cells; format: cell-based; details: epithelial cell
[15] = Apparent permeability from apical to basolateral side in dog RRCK cells; format: ADME, cell-based, Canis lupus familiaris, MDCKII-LE; details: MDCK
[16] = Total Cmax in dog at 0.2 mg/kg, iv infusion; format: ADME, organism-based, Canis lupus familiaris; set-up: dose 0.2 mg/kg, route intravenous; details: in vivo
[17] = target: Histamine H3 receptor (Cavia porcellus) (UniProt Q9JI35); assay: Inhibition of histamine H3 receptor in electrically contracted guinea pig ileum assessed as reduction of R-alpha-methyl histamine mediated relaxation; format: tissue-based
[18] = Oral bioavailability in rat at 2 mg/kg; format: ADME, organism-based; details: in vivo
Histamine H3 receptor [19] = target: T1, Histamine H3 receptor; assay: Inhibition of human recombinant histamine H3 receptor expressed in HEK293 cells assessed as inhibition of imetit-induced reduction in NKH477-stimulated cAMP accumulation by DiscoveRxTM assay; format: functional, cell-based
Histamine H3 receptor [20] = target: T2, Histamine H3 receptor; assay: Displacement of [3H]-N-alpha-methylhistamine from rat recombinant histamine H3 receptor expressed in HEK293 cell membrane; format: cell membranes
[21] = Oral bioavailability in rat; format: ADME, organism-based; details: in vivo
[22] = Ratio of free drug level in brain to plasma in iv dosed rat measured after 6 hrs infusion; format: ADME, organism-based; details: read-out: K(p,uu,brain)
[23] = Ratio of free drug level in brain to plasma in rat at 8 mg/kg/day, po for 8 days; format: ADME, organism-based; set-up: route oral; details: read-out: K(p,uu,brain)
[24] = Drug absorption in rat at 2 mg/kg, po; format: ADME, organism-based; set-up: dose 2 mg/kg, route oral; details: in vivo, read-out: Drug absorption
Salmonella typhimurium [25] = assay: Genotoxicity in Salmonella typhimurium TA100 expressing lux gene assessed as mutagenicity by BioLum Ames test; format: toxicity, organism-based; details: salmonella enterica subsp. enterica serovar typhimurium
[26] = Solubility of the compound; format: physicochemical
[27] = Tmax in rat at 2 mg/kg, po; format: ADME, organism-based; set-up: dose 2 mg/kg, route oral; details: in vivo
Rattus norvegicus [28] = assay: Free drug level in non-regulatory rat administered for 7 days; format: ADME, organism-based; details: in vivo, 168 h
Canis familiaris [29] = assay: Free Cmax in dog at 0.2 mg/kg, iv infusion; format: ADME, organism-based, Canis lupus familiaris; set-up: dose 0.2 mg/kg, route intravenous; details: in vivo
[30] = AUC in rat at 1 mg/kg, iv administered as bolus dose; format: ADME, organism-based; set-up: dose 1 mg/kg, route intravenous; details: plasma
Salmonella typhimurium [31] = assay: Genotoxicity in Salmonella typhimurium TA98 expressing lux gene assessed as mutagenicity by BioLum Ames test; format: toxicity, organism-based; details: salmonella enterica subsp. enterica serovar typhimurium
[32] = Oral bioavailability in dog at 0.2 mg/kg; format: ADME, organism-based, Canis lupus familiaris; details: in vivo
[33] = target: Voltage-gated inwardly rectifying potassium channel KCNH2 (Homo sapiens, UniProt Q12809); assay: Binding affinity to human ERG
[34] = Volume of distribution at steady state in dog at 0.2 mg/kg, iv infusion; format: ADME, organism-based, Canis lupus familiaris; set-up: dose 0.2 mg/kg, route intravenous; details: in vivo, read-out: Vdss
Canis familiaris [35] = assay: Free Cmax in dog at 0.2 mg/kg, po; format: ADME, organism-based, Canis lupus familiaris; set-up: dose 0.2 mg/kg, route oral; details: in vivo
[36] = Binding affinity to sigma receptor (unknown origin); set-up: species or system Homo sapiens
[37] = Dissociation constant, pKa of the compound; format: physicochemical
[38] = AUC in rat at 2 mg/kg, po; format: ADME, organism-based; set-up: dose 2 mg/kg, route oral; details: plasma
Histamine H3 receptor [39] = target: T1, Histamine H3 receptor; assay: Displacement of [3H]-PF-05255650 from human recombinant histamine H3 receptor expressed in HEK293 cell membrane; format: cell membranes
Histamine H2 receptor = Histamine H2 receptor (Homo sapiens, UniProt P25021); assay: Binding affinity to human histamine H2 receptor
[40] = Clearance in rat at 1 mg/kg, iv administered as bolus dose; format: ADME, organism-based; set-up: dose 1 mg/kg, route intravenous; details: in vivo
CHO [41] = assay: Genotoxicity in CHO cells by micronucleus test in presence of metabolic activation; format: toxicity, cell-based, Cricetulus griseus; details: chinese hamster
Rattus norvegicus [42] = assay: Free Cmax in rat at 1 mg/kg, iv administered as bolus dose; format: ADME, organism-based; set-up: dose 1 mg/kg, route intravenous; details: in vivo
[43] = Clearance in dog at 0.2 mg/kg, iv infusion; format: ADME, organism-based, Canis lupus familiaris; set-up: dose 0.2 mg/kg, route intravenous; details: in vivo
[44] = Effective half life in rat at 1 mg/kg, iv administered as bolus dose; format: ADME, organism-based; set-up: dose 1 mg/kg, route intravenous; details: in vivo, read-out: t1/2eff (converted)
Rattus norvegicus [45] = assay: Free Cmax in rat at 2 mg/kg, po; format: ADME, organism-based; set-up: dose 2 mg/kg, route oral; details: in vivo
[46] = Total Cmax in dog at 0.2 mg/kg, po; format: ADME, organism-based, Canis lupus familiaris; set-up: dose 0.2 mg/kg, route oral; details: in vivo
[47] = Distribution coefficient, log D of the compound at pH 7.4; format: physicochemical; details: octanol/water
[48] = Ratio of free drug level in brain to plasma in dog at 1.5 mg/kg/day, po for 8 days; format: ADME, organism-based, Canis lupus familiaris; set-up: route oral; details: read-out: K(p,uu,brain)
Histamine H1 receptor = Histamine H1 receptor (Homo sapiens, UniProt P35367); assay: Binding affinity to human histamine H1 receptor
Rattus norvegicus [49] = assay: Ex vivo receptor occupancy of histamine H3 receptor in iv dosed rat brain administered at 20 times free H3R Ki in plasma measured after 6 hrs infusion; format: functional

T1 sequence (Q9Y5N1 whole entry, the tested form may be a part): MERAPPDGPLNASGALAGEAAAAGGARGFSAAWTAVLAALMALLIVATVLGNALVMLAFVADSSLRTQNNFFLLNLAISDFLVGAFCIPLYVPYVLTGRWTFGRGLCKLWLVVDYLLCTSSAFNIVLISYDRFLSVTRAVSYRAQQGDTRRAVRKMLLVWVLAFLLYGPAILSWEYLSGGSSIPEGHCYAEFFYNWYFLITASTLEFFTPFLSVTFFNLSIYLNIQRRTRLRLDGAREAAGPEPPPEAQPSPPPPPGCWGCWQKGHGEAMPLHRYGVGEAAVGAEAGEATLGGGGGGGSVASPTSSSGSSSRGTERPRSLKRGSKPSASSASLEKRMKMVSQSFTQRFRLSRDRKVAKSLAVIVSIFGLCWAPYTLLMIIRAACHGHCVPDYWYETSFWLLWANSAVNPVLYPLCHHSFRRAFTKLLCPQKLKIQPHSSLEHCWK
T2 sequence (Q9QYN8 whole entry): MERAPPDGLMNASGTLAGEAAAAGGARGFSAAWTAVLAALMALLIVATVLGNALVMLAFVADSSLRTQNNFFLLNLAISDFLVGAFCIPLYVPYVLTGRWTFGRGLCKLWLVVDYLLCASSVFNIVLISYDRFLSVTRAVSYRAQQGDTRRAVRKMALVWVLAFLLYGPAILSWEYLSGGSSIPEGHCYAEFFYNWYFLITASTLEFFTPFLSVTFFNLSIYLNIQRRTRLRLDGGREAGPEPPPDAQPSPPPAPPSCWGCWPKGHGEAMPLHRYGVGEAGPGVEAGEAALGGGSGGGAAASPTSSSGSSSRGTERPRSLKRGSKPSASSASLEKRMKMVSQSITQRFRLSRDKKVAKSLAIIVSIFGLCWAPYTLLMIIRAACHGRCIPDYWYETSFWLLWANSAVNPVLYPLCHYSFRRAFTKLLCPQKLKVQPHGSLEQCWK
Histamine H3 receptor (Cavia porcellus), sequence (Q9JI35 whole entry): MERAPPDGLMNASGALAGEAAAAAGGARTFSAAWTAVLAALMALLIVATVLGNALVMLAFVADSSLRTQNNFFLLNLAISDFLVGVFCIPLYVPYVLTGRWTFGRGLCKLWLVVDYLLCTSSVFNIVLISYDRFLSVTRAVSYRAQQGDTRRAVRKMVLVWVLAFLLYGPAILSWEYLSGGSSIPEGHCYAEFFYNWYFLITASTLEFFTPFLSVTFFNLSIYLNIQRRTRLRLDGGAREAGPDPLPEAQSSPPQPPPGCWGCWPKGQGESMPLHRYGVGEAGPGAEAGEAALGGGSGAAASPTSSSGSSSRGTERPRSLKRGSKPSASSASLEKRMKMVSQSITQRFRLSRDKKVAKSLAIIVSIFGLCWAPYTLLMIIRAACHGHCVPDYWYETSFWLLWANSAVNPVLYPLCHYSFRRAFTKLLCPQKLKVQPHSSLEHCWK
Histamine H1 receptor, sequence (P35367 whole entry, the tested form may be a part): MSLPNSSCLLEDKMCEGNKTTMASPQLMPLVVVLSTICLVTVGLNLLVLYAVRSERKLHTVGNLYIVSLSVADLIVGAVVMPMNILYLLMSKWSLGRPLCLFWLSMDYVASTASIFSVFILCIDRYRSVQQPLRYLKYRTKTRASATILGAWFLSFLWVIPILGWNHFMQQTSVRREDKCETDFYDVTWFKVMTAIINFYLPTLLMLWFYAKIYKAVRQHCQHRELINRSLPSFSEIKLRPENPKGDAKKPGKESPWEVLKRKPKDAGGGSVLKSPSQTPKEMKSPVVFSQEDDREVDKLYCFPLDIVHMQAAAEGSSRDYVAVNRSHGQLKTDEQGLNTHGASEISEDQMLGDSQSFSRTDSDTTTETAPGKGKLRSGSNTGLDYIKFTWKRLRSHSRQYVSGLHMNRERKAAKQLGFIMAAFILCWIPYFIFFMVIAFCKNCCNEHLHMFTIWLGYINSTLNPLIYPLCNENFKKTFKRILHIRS
Histamine H2 receptor, sequence (P25021 whole entry): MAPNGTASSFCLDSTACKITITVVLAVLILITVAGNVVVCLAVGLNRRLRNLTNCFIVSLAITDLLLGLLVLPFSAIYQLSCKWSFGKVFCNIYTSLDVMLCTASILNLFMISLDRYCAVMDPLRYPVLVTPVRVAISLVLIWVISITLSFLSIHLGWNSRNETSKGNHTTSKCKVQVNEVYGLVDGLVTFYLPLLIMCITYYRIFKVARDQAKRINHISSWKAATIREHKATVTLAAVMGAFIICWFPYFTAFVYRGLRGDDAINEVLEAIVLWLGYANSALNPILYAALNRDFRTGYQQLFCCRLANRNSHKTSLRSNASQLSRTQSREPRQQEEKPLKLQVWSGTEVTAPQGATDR
Histamine H4 receptor, sequence (Q9H3N8 whole entry): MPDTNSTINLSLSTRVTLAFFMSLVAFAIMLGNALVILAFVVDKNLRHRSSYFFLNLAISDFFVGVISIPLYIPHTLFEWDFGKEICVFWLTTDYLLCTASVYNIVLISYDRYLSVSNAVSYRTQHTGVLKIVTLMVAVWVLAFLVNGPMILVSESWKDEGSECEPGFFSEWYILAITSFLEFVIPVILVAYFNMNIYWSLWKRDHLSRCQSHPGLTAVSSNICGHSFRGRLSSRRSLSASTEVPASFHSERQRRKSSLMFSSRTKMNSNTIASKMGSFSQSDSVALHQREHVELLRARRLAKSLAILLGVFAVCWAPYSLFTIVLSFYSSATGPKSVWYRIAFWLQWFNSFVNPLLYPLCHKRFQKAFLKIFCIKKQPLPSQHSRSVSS
Voltage-gated inwardly rectifying potassium channel KCNH2, sequence (Q12809 whole entry, the tested form may be a part): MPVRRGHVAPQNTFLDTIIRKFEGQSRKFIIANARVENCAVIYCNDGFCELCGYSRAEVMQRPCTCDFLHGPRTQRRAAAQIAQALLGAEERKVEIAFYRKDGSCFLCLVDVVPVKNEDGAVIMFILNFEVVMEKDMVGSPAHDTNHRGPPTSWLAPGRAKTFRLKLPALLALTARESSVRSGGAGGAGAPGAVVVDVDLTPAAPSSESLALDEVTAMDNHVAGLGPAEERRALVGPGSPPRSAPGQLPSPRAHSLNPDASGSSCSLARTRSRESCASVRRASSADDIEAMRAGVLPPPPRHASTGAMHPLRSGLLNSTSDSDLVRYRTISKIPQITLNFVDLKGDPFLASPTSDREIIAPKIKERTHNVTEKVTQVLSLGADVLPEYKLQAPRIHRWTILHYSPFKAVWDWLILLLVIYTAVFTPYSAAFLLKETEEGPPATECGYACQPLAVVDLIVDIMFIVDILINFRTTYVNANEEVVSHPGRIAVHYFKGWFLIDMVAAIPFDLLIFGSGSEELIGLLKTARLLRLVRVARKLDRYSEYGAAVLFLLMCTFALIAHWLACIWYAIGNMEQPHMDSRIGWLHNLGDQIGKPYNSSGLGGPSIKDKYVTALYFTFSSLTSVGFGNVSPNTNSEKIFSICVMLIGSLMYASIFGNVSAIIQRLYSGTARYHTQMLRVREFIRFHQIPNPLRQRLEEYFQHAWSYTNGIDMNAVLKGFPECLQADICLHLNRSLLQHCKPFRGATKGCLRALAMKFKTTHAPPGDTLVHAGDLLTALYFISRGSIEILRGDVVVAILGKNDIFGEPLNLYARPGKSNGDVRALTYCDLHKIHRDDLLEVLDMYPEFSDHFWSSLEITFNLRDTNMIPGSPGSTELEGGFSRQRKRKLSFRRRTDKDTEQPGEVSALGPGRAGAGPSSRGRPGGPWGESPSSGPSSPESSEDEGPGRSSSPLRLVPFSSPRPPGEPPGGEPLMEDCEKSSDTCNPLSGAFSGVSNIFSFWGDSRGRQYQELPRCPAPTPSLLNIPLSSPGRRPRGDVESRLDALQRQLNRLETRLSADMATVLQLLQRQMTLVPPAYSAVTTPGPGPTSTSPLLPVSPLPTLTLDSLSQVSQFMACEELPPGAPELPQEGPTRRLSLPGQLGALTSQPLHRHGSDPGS

With `CC(C)N1CCC(Oc2ccc(C3(C(N)=O)CCOCC3)cc2)CC1` the Ki (Histamine H3 receptor [1]) was 9.6 nM, the Ratio (Nucleic Acid) was 0.06 and the efflux ratio (MDR1 (P-gp)) was 3.3. For the same compound, the NOAEL at 168 h [2] was 80 mg/kg/day, the Ki (Histamine H3 receptor [3]) was 145 nM and the efflux ratio (BCRP) was 5.6. The selectivity ratio [4] was 16, the AUC [5] was 548 ng·h/mL and the Vd [6] was 4.1 L/kg. For the same compound, the half-life [7] was 4.5 h, the Cmax [8] was 89 ng/mL and the AUC [9] was 727 ng·h/mL. For the same compound, the Activity (CHO [10]) was “Non-toxic”, the Kb (Histamine H3 receptor [11]) was 0.42 nM and the Tmax [12] was 0.9 h. The Ki (Histamine H4 receptor) was > 4000 nM, the Ratio Ki (HEK293) was > 400 and the Cmax [13] was 477 ng/mL. The NOAEL [14] was 150 µM, the Papp A→B [15] was 2 ×10⁻⁶ cm/s and the Cmax [16] was 129 ng/mL. The A2 [17] was 0.96 nM, the bioavailability [18] was 42% and the Emax (Histamine H3 receptor [19]) was 195%. For the same compound, the Ki (Histamine H3 receptor [19]) was 0.832 nM, the Ki (Histamine H3 receptor [20]) was 90.6 nM and the bioavailability [21] was 42%. The Kp uu at 6 h [22] was 0.1, the Kp uu at 192 h [23] was 0.07 and the Fa [24] was 57%. The Activity (Salmonella typhimurium [25]) was “Non-toxic”, the solubility [26] was > 1000 µg/mL and the Tmax [27] was 0.75 h. The “Drug uptake(free)” value (Rattus norvegicus [28]) was 14.051 µM, the fCmax (Canis familiaris [29]) was 320 nM and the AUC [30] was 776 ng·h/mL. For the same compound, the Activity (Salmonella typhimurium [31]) was “Non-toxic”, the bioavailability [32] was 133% and the Ki [33] was > 40000 nM. It also gave a Vd [34] of 2.3 L/kg, a fCmax (Canis familiaris [35]) of 352 nM and a Ki [36] of 3900 nM. The pKa [37] was 9.78, the AUC [38] was 649 ng·h/mL and the Ki (Histamine H3 receptor [39]) was 1.36 nM. For the same compound, the Ki (Histamine H2 receptor) was > 4000 nM, the clearance [40] was 27 mL/min/kg and the Activity (CHO [41]) was “Non-toxic”. It also gave a fCmax (Rattus norvegicus [42]) of 856 nM, a clearance [43] of 6.1 mL/min/kg and a half-life [44] of 1.9 h. For the same compound, the fCmax (Rattus norvegicus [45]) was 158 nM, the Cmax [46] was 142 ng/mL and the logD [47] was 0. For the same compound, the Kp uu at 192 h [48] was 0.1 and the Ki (Histamine H1 receptor) was > 4000 nM.
In the case of `CC(C)N1CCC(Oc2ccc3c(n2)CCN(c2ccc(C(N)=O)cn2)C3)CC1`, the Ratio (Nucleic Acid) is reported as 0.05, the efflux ratio (MDR1 (P-gp)) is reported as 4.8 and the efflux ratio (BCRP) is reported as 3.7. It also gave a selectivity ratio [4] of 40, a Papp A→B [15] of 11 ×10⁻⁶ cm/s and a bioavailability [21] of 54%. The Kp uu at 6 h [22] was 0.1, the Kp uu at 192 h [23] was 0.07 and the solubility [26] was > 1000 µg/mL. It also gave an Occ (Rattus norvegicus [49]) of 18% and a logD [47] of 1.2.
